Experiments:
GABA A, Agonist Site = assay: Table 12 panel: GABA A, Agonist Site; format: binding; conditions: 1.0E−6, average N=2
Source text: (§1) The percentage inhibition (average; N=2) for these receptors is shown below in Table 12.
(§2) Values in Table 12 are expressed as percentage inhibition of specific binding, and these values represent the average of replicate tubes at each of the concentrations tested.

[1] = biological target: Glutamate, NMDA, Glycine (Stry-insens Site) (Homo sapiens, UniProt Q05586); assay: Table 12 panel: Glutamate, NMDA, Glycine; conditions: 1.0E−6, average N=2, read-out: percentage inhibition of specific binding
Source text: as §1, §2

[2] = system: Calcium Channel, Type L (Dihydropyridine Site); assay: Table 12 panel: Calcium Channel, Type L; format: binding; conditions: 1.0E−6, average N=2
Source text: as §1, §2

[3] = biological target: Nitric Oxide, NOS (Neuronal-Binding) (Homo sapiens, UniProt P29475); assay: Table 12 panel: NOS; conditions: 1.0E−6, average N=2, read-out: percentage inhibition of specific binding
Source text: as §1, §2

Thromboxane A2 (h) = Thromboxane A2 (h) (Homo sapiens, UniProt P21731); assay: Table 12 panel: Thromboxane A2; conditions: 1.0E−6, average N=2, read-out: percentage inhibition of specific binding
Source text: as §1, §2

[4] = Plasma pharmacokinetics in dogs; format: in vivo; conditions: dog, 3 mg/kg
Source text: The following pharmacokinetic parameters are computed from the individual plasma concentrations of the modified antihistamine compound using a noncompartmental approach and appropriate validated pharmacokinetic software (e.g., WinNonlin Professional). Concentration values reported as BLQ are set to zero. If concentration data are available, interim calculations are done (non-QC.d data) between periods if possible.
Dose proportionality following study medication is explored by analyzing natural log-transformed pharmacokinetic variables AUC(0-t), AUC(0-inf), and Cmax with a linear model including the natural log-transformed dose as covariates. […] The following parameters were estimated: • Cmax Maximum plasma concentration. • Tmax Time to maximum concentration. • Cmax and Tmax were reported directly from the concentration-time data. • AUC0-T Area under the plasma concentration-time curve from time […] to the last time point with measurable concentrations, estimated bylinear trapezoidal rule. • AUC0-00 Area under the plasma concentration-time curve extrapolated to infinity, calculated using the formula: AUC0-00=AUC0-1+C0/λ0 • Where Ct is the last measurable concentration in plasma and λz is the terminal phase elimination rate constant estimated using log-linear regression during the terminal elimination phase. […]

[5] = Urinary excretion in animal species; format: in vivo; conditions: animal species administered HY2901
human hepatocytes = assay: In vitro metabolism in human (cryopreserved) hepatocytes; format: in vitro ADME; conditions: human hepatocyte cultures
Experimental: Metabolism of test articles in monkey and human cryopreserved hepatocytes is assayed as follows:
Sample is diluted with DMSO, to prepare 100 μM and 10 μM stocks. 0.1% formic acid in acetonitrile is prepared by the addition of 1 mL formic acid per 1 L acetonitrile (store RT for 3 months). 10 minute, 60 and 120 minute 96 well quenching plates are prepared with 150 μL acetonitrile+0.1% formic acid in each well. Store on ice or refrigerated.
Next, hepatocytes are thawed and 100 μL of cell suspension is placed into a microfuge tube with 100 μL 0.4% Trypan Blue solution and gently mix by inversion. A small amount of the stained cell suspension (approximately 15 μL) is placed into a clean hemacytometer with a coverslip. The hemacytometer is placed onto the stage of the microscope and the focus and power are adjusted until a single counting square fills the field. The number of cells in the four outside corner subdivided squares of the hemacytometer are counted. Viable cells are opalescent, round, and pale with a darker outline. Non-viable cells are dark, opaque blue.
198 μL of hepatocytes are transferred to relevant wells on dosing plate.
Plates are preincubated for at least 15 min. […]
Cytochrome P450 inhibition was studied with HY2901 in vitro. […] In addition, the in vitro rate of metabolism in rat, dog, monkey, and human hepatocyte cultures was determined for HY2901.

telemetered Beagle dogs = assay: ECG and arterial blood pressure in telemetered Beagle dogs; format: in vivo, dog
Experimental: To determine if HY2901 could produce any changes in QT interval, the compound was studied in telemetered Beagle dogs. Dogs were implanted with devices to continuously monitor ECG and arterial blood pressure. Dogs (groups of 4) were studied in a Latin square cross-over design, with each dog receiving 3 different doses and a placebo. Two studies were conducted with doses of 0.3, 1, 3, 10, and 30 mg/kg. […] The tachycardia persisted for 6–8 hours postdose at 0.3 and 1 mg/kg. A ceiling effect to the heart rate increase seemed to exist with heart rates peaking at approximately 150–160 in both the 10 and 30 mg/kg dose groups.

Nitric Oxide, NOS (Neuronal-Binding), sequence (P29475 whole entry): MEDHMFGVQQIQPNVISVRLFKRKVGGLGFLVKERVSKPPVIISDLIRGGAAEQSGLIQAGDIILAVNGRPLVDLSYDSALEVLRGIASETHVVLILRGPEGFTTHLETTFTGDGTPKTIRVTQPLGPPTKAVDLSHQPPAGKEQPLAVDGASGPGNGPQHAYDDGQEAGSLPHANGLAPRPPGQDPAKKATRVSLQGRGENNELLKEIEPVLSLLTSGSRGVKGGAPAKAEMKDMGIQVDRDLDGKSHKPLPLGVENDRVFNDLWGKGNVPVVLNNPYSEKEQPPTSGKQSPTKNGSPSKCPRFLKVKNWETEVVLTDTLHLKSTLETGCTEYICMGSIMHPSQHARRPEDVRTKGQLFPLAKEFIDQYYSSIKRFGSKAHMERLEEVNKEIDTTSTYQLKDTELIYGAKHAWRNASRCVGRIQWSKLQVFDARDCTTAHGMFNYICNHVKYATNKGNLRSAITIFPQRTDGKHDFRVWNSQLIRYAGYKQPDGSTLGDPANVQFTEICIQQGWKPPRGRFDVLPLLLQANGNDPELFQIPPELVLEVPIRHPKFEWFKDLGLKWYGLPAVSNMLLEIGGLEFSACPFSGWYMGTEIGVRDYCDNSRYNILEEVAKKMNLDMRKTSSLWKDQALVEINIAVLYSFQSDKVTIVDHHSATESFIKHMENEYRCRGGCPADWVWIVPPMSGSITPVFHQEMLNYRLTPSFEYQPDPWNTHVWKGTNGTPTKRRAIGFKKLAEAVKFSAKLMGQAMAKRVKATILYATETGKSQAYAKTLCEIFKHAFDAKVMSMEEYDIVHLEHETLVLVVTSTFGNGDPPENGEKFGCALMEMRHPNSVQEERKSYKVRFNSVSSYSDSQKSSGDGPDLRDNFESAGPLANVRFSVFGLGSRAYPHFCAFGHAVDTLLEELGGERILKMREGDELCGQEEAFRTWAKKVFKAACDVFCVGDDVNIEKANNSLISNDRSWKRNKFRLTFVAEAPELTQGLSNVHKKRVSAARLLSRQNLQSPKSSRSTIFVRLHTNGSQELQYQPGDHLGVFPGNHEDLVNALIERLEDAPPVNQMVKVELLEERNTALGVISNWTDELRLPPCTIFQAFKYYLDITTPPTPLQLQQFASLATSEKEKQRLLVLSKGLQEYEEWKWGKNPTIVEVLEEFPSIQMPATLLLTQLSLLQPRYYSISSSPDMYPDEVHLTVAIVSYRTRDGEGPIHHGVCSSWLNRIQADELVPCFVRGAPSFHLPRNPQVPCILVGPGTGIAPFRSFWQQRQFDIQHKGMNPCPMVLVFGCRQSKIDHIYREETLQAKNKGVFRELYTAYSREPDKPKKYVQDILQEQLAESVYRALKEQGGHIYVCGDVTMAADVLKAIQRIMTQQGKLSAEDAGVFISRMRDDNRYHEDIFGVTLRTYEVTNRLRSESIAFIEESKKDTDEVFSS
Thromboxane A2 (h), sequence (P21731 whole entry): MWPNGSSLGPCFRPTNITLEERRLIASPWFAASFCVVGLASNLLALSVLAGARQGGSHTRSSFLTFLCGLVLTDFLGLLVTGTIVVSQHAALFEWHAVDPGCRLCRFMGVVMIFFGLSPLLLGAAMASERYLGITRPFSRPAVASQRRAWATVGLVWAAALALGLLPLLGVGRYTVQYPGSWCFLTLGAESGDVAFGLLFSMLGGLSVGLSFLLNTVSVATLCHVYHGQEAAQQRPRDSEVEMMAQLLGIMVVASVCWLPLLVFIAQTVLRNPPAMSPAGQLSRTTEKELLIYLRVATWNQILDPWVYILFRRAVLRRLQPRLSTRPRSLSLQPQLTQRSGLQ

Structure (SMILES)	percentage inhibition of specific binding (GABA A, Agonist Site) [%]	inhibition at 1 µM [1] [%]	percentage inhibition of specific binding [2] [%]	inhibition at 1 µM [3] [%]	inhibition at 1 µM (Thromboxane A2 (h)) [%]	half-life [4] [h]	Tmax ([4]; after oral administration) [h]	unchanged drug and metabolites in urine [5]	in vitro metabolism (human hepatocytes)	persistence of tachycardia postdose (telemetered Beagle dogs; 0.3 and 1 mg/kg) [h]	peak heart rate (telemetered Beagle dogs; 10 and 30 mg/kg dose groups)	QT or corrected QT interval (telemetered Beagle dogs; doses of 0.3, 1, 3, 10, and 30 mg/kg)	heart rate effect (telemetered Beagle dogs; doses of 0.3 to 30 mg/kg, intravenous or oral)	persistence of tachycardia (telemetered Beagle dogs; higher doses) [h]	blood pressure (telemetered Beagle dogs; paralleled the tachycardia)
CC(CC(=O)O)N1CCC(=C2c3ccc(F)cc3COc3ccccc32)CC1 (stereo not drawn) [Compound 37]	20.18	-12.5	5.82	17.2	6.55	–	–	–	–	–	–	–	–	–	–
CC(C)(CN1CCC(=C2c3ccc(F)cc3COc3ccccc32)CC1)C(=O)O [Compound 49a]	–	–	–	–	–	4.2	0.5	has been found in the urine	little metabolism was observed	6 to 8	150–160	no changes in QT or corrected QT interval at any dose	dose-related sinus tachycardia	10 to 12	slight increase in blood pressure

Source: patent US7326721B2 (Hypnion, Inc., priority 2003, dated 2008)
